These results are taken from US4178442A, “Novel cinnamoyles piperazines and homopiperazines, the method of preparing them and their application in therapeutics” (Delalande S. A., priority 1977, dated 1979).

Molecules are shown by their SMILES. Where two headings read alike, the source gives them in different places.

One data set in a line: in vivo. To be noted: iv; for LD50: read-out: Toxicity: LD50. The text has this:
*LD50 or percentage of mortality which is given between brackets

A further data set relates to anaesthetized dog. As to the kind of experiment: Antiangorous activity on anaesthetized dog: consumption of oxygen in the left ventricule and cardiac effort (KATZ's index). The format is in vivo. As to conditions: for Diminution in consumption of O2: in time / Diminution in the cardiac effort (IK): in time / inhibition in vivo at 2.5 mg/kg: 2.5 mg/kg i.v. slow perfusion; for inhibition in vivo at 2.5 mg/kg / inhibition in vivo at […]: Canis lupus familiaris, iv; for inhibition in vivo at […]: 0.15 mg/kg i.v. slow perfusion. On the procedure: The antiangorous activity was tested on an anaesthetized dog (sodium pentobarbital 30 mg/kg/i.v.).
The consumption of oxygen in the left ventricule was estimated by the product of the coronary venous flow and the coronary arteriovenous difference in oxygen (% volume).
The coronary venous flow was measured at the coronary venous sinus by means of a modified Morawitz cannula, introduced under radioscopic control.
The cardiac effort was estimated according to KATZ's index, by the product of the average arterial pressure and the cardiac frequency.
The cardiac frequency was estimated from the electrocardiogram recorded with D2 derivation.
It should be noted that the compounds tested were injected intravenously with slow perfusion.

[1] abbreviates: read-out: Diminution in consumption of O2.
Setting [2] is: read-out: Diminution in the cardiac effort (IK).

`CNC(=O)Nc1ccc(OCC(O)CN2CCN(C(=O)/C=C/c3cc(OC)c(OC)c(OC)c3)CC2)c2c1CCCC2` (centres unmarked) [771 157]: the LD50 (in general, the dose expected to kill half of the subjects tested) in the data set “in vivo” amounted to 210 mg/kg. Moreover, in the data set with anaesthetized dog, the “Diminution in consumption of O2: in time” value was determined as 30 min and the “Diminution in the cardiac effort (IK): in time” value (“Diminution in the cardiac effort” for short) is 30 min. In the data set on anaesthetized dog (setting [1]), the inhibition in vivo at 2.5 mg/kg came out at 53%. In the data set with anaesthetized dog (setting [2]), the inhibition in vivo at 2.5 mg/kg was 46%.

As to `COc1cc(/C=C/C(=O)N2CCN(CC(O)COc3cccc(NC(C)=O)c3)CC2)cc(OC)c1OC` (centres unmarked) [770 844], the mortality (usually the percentage killed) in the data set “in vivo” (400 mg/kg i.v., read-out: Toxicity (Mortality)) was determined as 0%. In the data set on anaesthetized dog, the “Diminution in consumption of O2: in time” value was determined as 23 min and the “Diminution in the cardiac effort” value turned out to be 30 min. In the data set with anaesthetized dog (setting [1]), the inhibition in vivo at 2.5 mg/kg was determined as 58%. In the data set with anaesthetized dog (setting [2]), the inhibition in vivo at 2.5 mg/kg was found to be 35%.

As for `COc1cc(/C=C/C(=O)N2CCN(CC(O)COc3ccc(CC#N)c4c3OCCO4)CC2)cc(OC)c1OC` (centres unmarked) [770 188], the LD50 in the data set “in vivo” was 219 mg/kg.

Consider `COc1cc(/C=C/C(=O)N2CCN(CC(O)COc3ccc(C(C)=O)cc3OC)CC2)cc(OC)c1` (centres unmarked) [780 404], for which, in the data set with anaesthetized dog, the “Diminution in consumption of O2: in time” value came to 15 min and the “Diminution in the cardiac effort” value is recorded as 30 min. In addition, the inhibition in vivo at 2.5 mg/kg in the data set with anaesthetized dog (setting [1]) came out at 69%. Also, the inhibition in vivo at 2.5 mg/kg with anaesthetized dog (setting [2]) was determined as 44%.

For the compound `COc1cc(/C=C/C(=O)N2CCN(CC(O)COc3ccc(NC(C)=O)c4ccccc34)CC2)cc(OC)c1OC` (centres unmarked) [771 036], the “Diminution in the cardiac effort” value in the data set on anaesthetized dog came to 15 min. Also, the figures for the inhibition in vivo at 2.5 mg/kg in the data set with anaesthetized dog (setting [1]) and in the data set on anaesthetized dog (setting [2]) were 15% and 25%, respectively.

`COc1cc(C=O)ccc1OCC(O)CN1CCN(C(=O)/C=C/c2cc(OC)c(OC)c(OC)c2)CC1` (centres unmarked) [780 329]: in the data set with anaesthetized dog, the “Diminution in consumption of O2: in time” value was found to be 30 min and the “Diminution in the cardiac effort” value was found to be 30 min. Moreover, the inhibition in vivo at 2.5 mg/kg in the data set with anaesthetized dog (setting [1]) turned out to be 21%. In the data set with anaesthetized dog (setting [2]), the inhibition in vivo at 2.5 mg/kg was found to be 13%.

For the compound `COc1cc(/C=C/C(=O)N2CCN(CC(O)COc3c(Cl)cc(C(C)=O)cc3Cl)CC2)cc(OC)c1OC` (centres unmarked) [780 339], in the data set with anaesthetized dog, the “Diminution in consumption of O2: in time” value stood at 45 min and the “Diminution in the cardiac effort” value came to 40 min. Further, the inhibition in vivo at 2.5 mg/kg in the data set on anaesthetized dog (setting [1]) was 74%. In addition, the inhibition in vivo at 2.5 mg/kg in the data set with anaesthetized dog (setting [2]) is 42%.

With `COc1cc(/C=C/C(=O)N2CCN(CC(O)COc3ccc(C(C)=O)c4c3OCCCO4)CC2)cc(OC)c1OC` (centres unmarked) [780 241], the inhibition in vivo at […] in the data set with anaesthetized dog (setting [1]) worked out at 30%; with anaesthetized dog (setting [2]), 13%.

Consider `CNC(=O)Nc1cc(Cl)c(OCC(O)CN2CCN(C(=O)/C=C/c3cc(OC)c(OC)c(OC)c3)CC2)c(Cl)c1` (centres unmarked) [780 292], for which, in the data set with anaesthetized dog, the “Diminution in consumption of O2: in time” value came to 90 min and the “Diminution in the cardiac effort” value is 45 min. The inhibition in vivo at 2.5 mg/kg with anaesthetized dog (setting [1]) came out at 59%. In the data set on anaesthetized dog (setting [2]), the inhibition in vivo at 2.5 mg/kg was found to be 34%.

Consider `COc1cc(/C=C/C(=O)N2CCN(CC(O)COc3ccc(C(C)=O)c4c3CCCC4)CC2)cc(OC)c1OC` (centres unmarked) [780 128], for which, in the data set with anaesthetized dog, the “Diminution in consumption of O2: in time” value was found to be 23 min and the “Diminution in the cardiac effort” value is 23 min. Besides, in the data set on anaesthetized dog (setting [1]), the inhibition in vivo at 2.5 mg/kg came out at 57%. Besides, the inhibition in vivo at 2.5 mg/kg in the data set on anaesthetized dog (setting [2]) amounted to 17%.

As to `COc1cc(/C=C/C(=O)N2CCN(CC(O)COc3ccc(C(C)=O)cc3Cl)CC2)cc(OC)c1OC` (centres unmarked) [780 401], the “Diminution in consumption of O2: in time” value in the data set on anaesthetized dog stood at 30 min. Also, the inhibition in vivo at 2.5 mg/kg in the data set with anaesthetized dog (setting [1]) is 64%; with anaesthetized dog (setting [2]), 6%.

`COc1cc(/C=C/C(=O)N2CCN(CC(O)COc3ccc(C(=O)OC4CCCCC4)c4c3OCCO4)CC2)cc(OC)c1OC` (centres unmarked) [780 333]: the inhibition in vivo at […] with anaesthetized dog (setting [1]) amounted to 51%; in the data set on anaesthetized dog (setting [2]), 21%.

`COc1cc(/C=C/C(=O)N2CCN(CC(O)COc3ccc(C(C)=O)c4c3CCC4)CC2)cc(OC)c1OC` (centres unmarked) [760 852]: in the data set with anaesthetized dog, the “Diminution in consumption of O2: in time” value worked out at 30 min and the “Diminution in the cardiac effort” value is recorded as 45 min. The inhibition in vivo at 2.5 mg/kg with anaesthetized dog (setting [1]) worked out at 44%. The inhibition in vivo at 2.5 mg/kg in the data set on anaesthetized dog (setting [2]) was found to be 23%.

On to `CNC(=O)Nc1ccc(OCC(O)CN2CCN(C(=O)/C=C/c3cc(OC)c(OC)c(OC)c3)CC2)c2ccccc12` (centres unmarked) [771 031], for which the inhibition in vivo at […] worked out at 20% with anaesthetized dog (setting [1]) and 25% with anaesthetized dog (setting [2]).
